Test results published in PubChem BioAssay AID504828 (Johns Hopkins Ion Channel Center, 2011).

What follows are compounds tested against Inward rectifier potassium channel 2 (Mus musculus) (UniProt P35561) (assay: inhibition of mouse Kir2.1 inward rectifier channel – manual whole-cell patch clamp, extended SAR, set 1, orthogonal assay, SAR follow-up (AID 504828)). Conditions: Kir2.1-expressing cells, -100 mV.
Chain of Inward rectifier potassium channel 2 (Mus musculus) (P35561 whole entry, looked up): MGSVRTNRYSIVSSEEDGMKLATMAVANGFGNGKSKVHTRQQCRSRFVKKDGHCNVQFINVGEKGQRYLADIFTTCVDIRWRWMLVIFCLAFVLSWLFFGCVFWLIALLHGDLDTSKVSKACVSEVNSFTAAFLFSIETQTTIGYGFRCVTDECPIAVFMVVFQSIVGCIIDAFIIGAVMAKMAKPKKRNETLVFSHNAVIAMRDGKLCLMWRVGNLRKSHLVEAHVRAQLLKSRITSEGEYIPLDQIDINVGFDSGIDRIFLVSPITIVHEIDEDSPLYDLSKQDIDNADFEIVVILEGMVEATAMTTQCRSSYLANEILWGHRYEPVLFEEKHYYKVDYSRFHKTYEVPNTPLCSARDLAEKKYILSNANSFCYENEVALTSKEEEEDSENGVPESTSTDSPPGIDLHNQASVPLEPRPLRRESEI

| Structure (SMILES) | IC50 [µM] |
| --- | --- |
| CC(NS(=O)(=O)c1ccc(Br)cc1)c1ccccc1 (stereo unspecified) | 8.82 |
| O=S(=O)(c1ccc(F)cc1)N1CCCc2ccccc21 | 11.1 |
| Cc1ccc2nc(NCc3ccccc3)[nH]c2c1 | 16.6 |

Now those with a lower IC50, led by results:

| IC50 [µM] | Structure (SMILES) |
| --- | --- |
| 4.12 | CC(O)CNCCCOc1cccc(Oc2ccccc2)c1 (stereo unspecified) |
| 3.21 | Cc1noc(C)c1COC(=O)CCN1c2ccccc2Sc2ccccc21 |
| 5.94 | Cc1ccc(C)c(OCCCNCc2ccccc2)c1 |
